“Also recorded” adds a separate entry of the source.
Legend:
OVCA429 cells [1] = assay: Cell proliferation (MTT) assay, serous cancer cells OVCA429; type: cell-based, human; conditions: for cell proliferation compared to the control treatments: p<0.0001; for inhibitory pattern in ovarian cancer cells (discussion): cell line not given
Experimental: (§1) Immortalized normal human ovary epithelial cell (HOSEE6E7) and a serous type ovarian cancer cell lines (OVCA433) previously established in our laboratory (Tsao, et al., Exp. Cell Res. 218:499-507 (1995); Kim, et al., Jama 287:1671-1679 (2002)) were used in this study. Two mucinous ovarian cancer cell lines (RMUG-S and RMUG-L) were purchased from The Japanese Collection of Research Bioresource (Tokyo, Japan). RMUG-L cells were cultured in MCDB105/M199 medium as above, and RMUG-S cells were cultured in F-12 medium with 10% Fetal Bovine Serum and 1% antibiotic as above. Cells were maintained at 37° C. under 5% CO2 and 95% air in a high humidity chamber. Monolayer cells at 60-80% confluence were enzymatically removed using trypsin/EDTA and plated in 96 well flat-bottomed plates at concentration of 5×10^3 per well for HOSE-E6E7 cells, 1×10^3 per well for OVCA429 and RMUG-L, respectively. Treatments were added 24 hours after plating. Ten mM stock solutions of Ginkgo biloba, quercetin, kaempferol, ginkgolide A, and ginkgolide B, were prepared in DMSO and cells were treated with 10, 50 and 100 μM concentrations of each component. Concentration of standard Ginkgo biloba treatment was calibrated according to the fact that, the standard Ginkgo biloba mixture contains about 4-6% of total active terpene lactons, and the estimated average of the molecular weight of the mixture is about 300. An equal volume of DMSO (less than <1% concentration) was used as control treatment.
(§2) Methods for the cell proliferation and viability assays were adopted from MTT (Mosmann, J. Immunol. Methods 65:55-63 (1983), XTT (Scudiero et al., Cancer Res. 48:4827-4833, (1988)) and MTS (Cory, et al., Cancer Commun. 3: 207-212 (1991)), which developed as WST-1 (Roche Applied Science, Germany). Briefly, the tetrazolium salts are cleaved to formazan by cellular enzymes. An expansion in the number of viable cells results in an increase in the overall activity of mitochondrial dehydrogenases in the sample. This augmentation in enzyme activity leads to an increase in the amount of formazan dye formed, which directly correlates with the number of metabolically active cells in the culture. After 72 hours of treatment, 15 μl of the MTT dye solution was added to each well and the plates were incubated at 37° C. for 4 hours in a humidified chamber. After incubation, 100 μl of the Solubilization/Stop solution was added to each well. One hour after the addition of the solubilization solution, the contents of the wells were mixed and read by the 96-well plate scanning spectrophotometer (μQuant) and quantitative software (KC-junior, Bio-Tek Instruments, Inc.) at an absorbance of 630 nm for quantitative analysis. Data was collected from at least 3 separate experiments, and at least 8 repeats were performed for each individual treatment. The cell proliferation rate was expressed as a percentage of the control, which had been treated with an equivalent volume of DMSO (as 100%).
Logistic regression analysis was used to calculate the exposure odds ratio to estimate the relative risk (RR) for ovarian cancer associated with the use of any or a particular type of herbal remedy. Adjustment variables included age, study center, oral contraceptive (OC) use, parity, and Jewish ethnic background. Additionally, we adjusted individually for categories of consumption of vitamin A, carotene, tomatoes and tomato sauce and juice, and raw carrots based upon previous work showing the importance of these foods and vitamins on ovarian cancer risk in our data (Cramer, et al., Int. J. Cancer 94:128-134 (2001)). For the data from the cell proliferation assay, linear regression models were applied to analyze mean OD values from the MTT assays across the different concentration treatments, adjusted for individual experiments. We used a partial F test to determine whether mean OD levels varied across the four concentrations (control, 10, 50, 100 μM). […]

[2] = 10 young healthy volunteers; single oral dose of 80 mg Ginkgo biloba (EGb 761 formula); cited from earlier work
RMUG-L cells [3] = assay: Cell proliferation (MTT) assay, mucinous cancer cells RMUG-L; type: cell-based, human; conditions: 10, 50 and 100 μM (extract: equivalent of ginkgolides), 72 h
Experimental: as §1, §2
Logistic regression analysis was used to calculate the exposure odds ratio to estimate the relative risk (RR) for ovarian cancer associated with the use of any or a particular type of herbal remedy. Adjustment variables included age, study center, oral contraceptive (OC) use, parity, and Jewish ethnic background. […]

HOSE-E6E7 cells [4] = assay: Cell cycle analysis, HOSE-E6E7; type: cell-based, human; conditions: 100 μM, 24 h
Experimental: (§3) For the cell cycle analysis, ovarian cells were plated in 75 cm^2 flasks and treated with 100 μM of ginkgolide A and B; the control was treated with an equal amount of DMSO. After 24 and 48 hours, cells were harvested by trypsin digestion and followed by PBS washing and spun for 5 min at room temperature at 12,000 rpm. Cells were fixed with 70% ethanol (in PBS buffer) by suspending the cell pellet and incubated at room temperature for 5 minutes or at −20° C. for two days. The fixed cells were washed once with PBS and then treated with RNase A (50 ug/ml) at 37° C. for 30-60 min. After a single washing with PBS to remove RNase A, propidium iodide (25 μg/ml in PBS buffer) was added. Cells were subjected to analysis using a FACS Calibur Flow Cytometer (Becton Dickson, San Jose, Calif.). Each experiment was repeated at least three times and the cell cycle profiles and data were analyzed by ModFit LT software (Verity Software House, Inc., Topsham, Me.).

HOSE-E6E7 cells [5] = assay: Cell proliferation (MTT) assay, HOSE-E6E7 cells; type: cell-based, human; conditions: 10, 50 and 100 μM (extract: equivalent of ginkgolides), 72 h
Experimental: Immortalized normal human ovary epithelial cell (HOSEE6E7) and a serous type ovarian cancer cell lines ([…]) previously established in our laboratory (Tsao, et al., Exp. Cell Res. 218:499-507 (1995); Kim, et al., Jama 287:1671-1679 (2002)) were used in this study. Two mucinous ovarian cancer cell lines (RMUG-S and RMUG-L) were purchased from The Japanese Collection of Research Bioresource (Tokyo, Japan). RMUG-L cells were cultured in MCDB105/M199 medium as above, and RMUG-S cells were cultured in F-12 medium with 10% Fetal Bovine Serum and 1% antibiotic as above. Cells were maintained at 37° C. under 5% CO2 and 95% air in a high humidity chamber. Monolayer cells at 60-80% confluence were enzymatically removed using trypsin/EDTA and plated in 96 well flat-bottomed plates at concentration of 5×10^3 per well for HOSE-E6E7 cells, 1×10^3 per well for OVCA429 and RMUG-L, respectively. Treatments were added 24 hours after plating. […]
as §2, with “After 72 hours of treatment, 15 μl of the MTT dye solution was added to each well and the plates were incubated at 37° C. for 4 hours in a humidified chamber. After incubation, 100 μl of the Solubilization/Stop solution was added to each well.” left out, “Data was collected from at least 3 separate experiments, and at least 8 repeats were performed for each individual treatment.” left out, “100%). […]” for “100%).”

OVCA429 cells [6] = assay: Cell cycle analysis (propidium iodide flow cytometry), OVCA429; type: cell-based, human; conditions: for S-phase DNA contents / G0/G1 phase DNA: OVCA429, 100 μM; for cell cycle effect: serous type cancer cells
Experimental: as §3

smooth muscle cell = conditions: related to G1 to S phase blockage; cited from earlier work
RMUG-L cells [7] = assay: Cell cycle analysis, RMUG-L; type: cell-based, human; conditions: 48 h
Experimental: as §3

RMUG-S cells = assay: Cell cycle analysis, RMUG-S; type: cell-based, human; conditions: after treatment
Experimental: as §3

[8] = 48 h, control 43% (ginkgolide B), 36.5% (ginkgolide A)
[9] = 48 h, control 47.9% (ginkgolide B), 50.7% (ginkgolide A)

For `C[C@@H]1C(=O)O[C@H]2C[C@@]34[C@H]5C[C@@H](C(C)(C)C)[C@]36[C@@H](OC(=O)[C@@H]6O)O[C@@]4(C(=O)O5)[C@]21O` [ginkgolide A], the “cell proliferation compared to the control treatments” value (OVCA429 cells [1]; OVCA429, 50 and 100 μM, 72 h) is listed as “about 60%”, the “inhibitory pattern in ovarian cancer cells (discussion)” value (from here on “inhibitory pattern”) (OVCA429 cells [1]) is listed as “significant inhibitory pattern” and the average concentration measured [2] is listed as 15 ng/mL. The “effect on cell proliferation (words)” value (RMUG-L cells [3]) was “no effect”, the “effect on cell proliferation (words)” value (RMUG-L cells [3]; listed as Ginkgolide A) was “little effect” and the “effect on DNA content of G0/G1, S and G2/M phases” value (HOSE-E6E7 cells [4]) was “neither ginkgolide A nor ginkgolide B (100 μM) showed a significant effect”. For the same compound, the “effect on cell proliferation (words)” value (HOSE-E6E7 cells [5]) was “little effect”, the “S-phase DNA contents” value (OVCA429 cells [6]; [8]) was 10.3% and the “G0/G1 phase DNA” value (OVCA429 cells [6]; [9]) was 86.1%. The “cell cycle effect” value (OVCA429 cells [6]) was “cell cycle blockage at G0/G1 to S phase checking point”.

In the case of `CC1C(=O)OC2C(O)C34C5CC(C(C)(C)C)C36C(OC(=O)C6O)OC4(C(=O)O5)C12O` (stereo not shown) [ginkgolide B], the “inhibition of smooth muscle cell proliferation” value (smooth muscle cell) is given as “inhibit smooth muscle cell proliferation in a concentration dependent manner”, the “cell proliferation compared to the control treatments” value (OVCA429 cells [1]; OVCA429, 10, 50 and 100 μM, 72 h) is given as “about 60%” and the “inhibitory pattern” value (OVCA429 cells [1]) is given as “significant inhibitory pattern”. For the same compound, the “S-phase DNA” value (RMUG-L cells [7]; control 28.7%) was 40.9%, the “G0/G1 phase DNA” value (RMUG-L cells [7]; control 57%) was 44% and the average concentration measured [2] was 4 ng/mL. The “effect on cell proliferation (words)” value (RMUG-L cells [3]) was “little effect; also recorded: no effect”, the “effect on DNA content of G0/G1, S and G2/M phases” value (HOSE-E6E7 cells [4]) was “neither ginkgolide A nor ginkgolide B (100 μM) showed a significant effect” and the “effect on cell proliferation (words)” value (HOSE-E6E7 cells [5]) was “little effect”. For the same compound, the “S-phase DNA contents” value (OVCA429 cells [6]; 24 h, control 43%) was 35.8%, the “G0/G1 phase DNA” value (OVCA429 cells [6]; 24 h, control 47.9%) was 51.5% and the “S-phase DNA contents” value (OVCA429 cells [6]; [8]) was 24%. For the same compound, the “G0/G1 phase DNA” value (OVCA429 cells [6]; [9]) was 65.1%, the “cell cycle effect” value (OVCA429 cells [6]) was “cell cycle blockage at G0/G1 to S phase checking point” and the “changes in G0/G1, S-phase and M-phase DNA distribution” value (RMUG-S cells) was “no observed changes”.

With `O=c1c(O)c(-c2ccc(O)cc2)oc2cc(O)cc(O)c12` [kaempferol, reference compound] the “effect on cell proliferation (words)” value (OVCA429 cells [1]; OVCA429, 10, 50 and 100 μM (extract: equivalent of ginkgolides), 72 h) was “little effect” and the “effect on cell proliferation (words)” value (RMUG-L cells [3]) was “little effect”.

In the case of `O=c1c(O)c(-c2ccc(O)c(O)c2)oc2cc(O)cc(O)c12` [quercetin, reference compound], the “effect on cell proliferation, exception to 'little effect'” value (OVCA429 cells [1]; OVCA429, 50 and 100 μM) was “OVCA429 with 50 and 100 μM quercetin”, the “inhibitory pattern” value (OVCA429 cells [1]) was “significant inhibitory pattern” and the “effect on cell proliferation (words)” value (RMUG-L cells [3]) was “little effect”. The “effect on cell proliferation (words)” value (HOSE-E6E7 cells [5]) was “little effect”.
